# What was measured:
# [1] = biological target: L452R mutant RBD epitope antigen (Severe acute respiratory syndrome coronavirus 2, UniProt P0DTC2, L452R)
# [2] = biological target: T478K mutant RBD epitope antigen (Severe acute respiratory syndrome coronavirus 2, UniProt P0DTC2, T478K)
Sequence,reactivity to a homologous epitope of the mutant RBD compared with the wild-type RBD [1],reactivity of mouse serum to the mutant RBD [2],reactivity to the mutant RBD compared with reactivity to the wild-type RBD [2]
GGNYNYLYRLFRKSNLKPFERD [#10],substantially equivalent,,
SNLKPFERDISTEIYQAGSTPC [#11],,sufficiently high reactivity,a little lower

# Source: patent US20240358818A1, “ANTIBODY-INDUCING POLYPEPTIDE AND VACCINE” (priority 2021, published 2024)
